The record followed here is patent US20240150396A1 (The Texas A&M University System, priority 2021, published 2024).

Experiment [1] has as its target T1, cruzain (Trypanosoma cruzi, UniProt P25779). As to the kind of experiment: biochemical. To be noted: pH 7.5. As to the method: All enzyme assays were performed at 25° C. Initial rates of the peptidolytic reaction catalyzed by cruzain were measured by monitoring the fluorescence generated by cleavage of the dipeptide-AMC bond. Assays were conducted in 96-well plates (Greiner; flat-bottom, clear black plates) in a total volume of 250 μL, containing either 50 mM MES (pH 7.5), 50 mM TAPSO, 100 mM DEA, 1 mM CHAPS, 1 mM Na2EDTA, 5 mM DTT, and 10% DMSO (v/v) or 50 mM sodium acetate (pH 5.5), 50 mM MES, 100 mM TEA, 1 mM CHAPS, 1 mM Na2EDTA, 5 mM DTT, and 10% DMSO (v/v). Substrates were dissolved in 100% DMSO and were then diluted 10-fold such that when added to reaction mixtures, final DMSO concentration was 10% (v/v). […] Fluorescence was measured on either a SpectraMax M5 (Molecular Devices) or a Synergy HTX (BioTek, Winooski, VT) microplate reader (λex=360 nm, λem=460 nm). Initial rates were determined from continuous kinetic time courses and calculated from the earliest time points, typically at less than 10 min.
(2) Enzyme and compound were preincubated over extended periods of time, and then aliquots were removed and diluted 50-fold to 100-fold into reaction mixtures containing 10 μM Cbz-Phe-Arg-AMC, followed by the assessment of the resulting time courses.
Data for time-dependent inhibition were fitted by several methods.
Values of kobs versus [inhibitor] were then replotted and fitted to eq 4 for which k3 and k4 represent the respective rates of formation and dissolution of the EI* complex as depicted in FIG. 9.
In addition, time-course data were fitted globally by two methods. First, expressions for vs, vi, and kobs were substituted into eq 3 to generate eq 6, which was used to fit time-course data at all concentrations of inhibitors simultaneously. Second, time-course data were fitted using KinTek Explorer as either a single-binding step model with the two kinetic parameters k3/Ki and k4 or a two-step binding mechanism as shown in FIG. 9 from which rate constants k1-k4 are determined (Supporting Information).
Enzyme Assays. The preparation of cruzain and 3CL^pro were described in previous publications.^8, 34 The evaluation of inhibitors was modified from our lab protocol and described briefly as follows.^35 All enzyme assays were conducted in 96-well, clear bottom, black plates at 25° C., and fluorescence emanating from product formation was measured using either a SpectraMax M5 (Molecular Devices) or a Synergy HTX (Biotek) microplate reader, with excitation at λex=360 nm and emission at λem=460 nm. […] Reactions were started with addition of enzyme (typically, to a final concentration of 0.2 nM for cruzain or 40 nM for 3CL^pro), and the time courses were recorded for 0.5-1 h.
Kinetic Data Analysis. All time-course data were fitted to eq. 1, wherein P is the fluorescence generated by formation of AMC or liberated ACC, C is the background constant, vi and vs are respectively initial-state and steady-state reaction rates, t is time, and kobs is the observed rate of conversion of the initial inhibited rate to the final inhibited rate.^46
Overall inhibition constants (Ki* values) were obtained by fitting vs/v0 to eq. 4, wherein vs and v0 are steady-state reaction rates in the presence and absence of inhibitor respectively, [S] and [I] represent the fixed concentration of substrate and variable inhibitor, Km is the Michaelis constant of the substrate.

For experiment [2], the system named is T. cruzi (Ca-I/72) in C2C12 murine cardiomyoblasts. The experiment can be described thus: T. cruzi-infected murine cardiomyoblasts (C2C12). The class given is cell-based, Trypanosoma cruzi. To be noted: read-out: EC50 T. cruzi-infected cardiomyoblasts. Here is the method: For the evaluation of the antitrypanocidal activity of cruzain inhibitors, we infected a C2C12 mouse cardiomyoblast cell line (ATCC CRL-1772) with T. cruzi strain Ca-I/72 (a gift from James Dvorak, National Institutes of Health) in […] plates. […] The plates were incubated at 37° C. for 48 h, and the wells were fixed with 2% paraformaldehyde in PBS and stained with 5 μg mL-1 4,6-diamidino-2-phenylindole. After at least 30 min of incubation at room temperature in the dark, the plates were read in an automated microscope, ImageXpress Micro XL (Molecular Devices), and the images were analyzed by custom-built software to quantify and assess viability of the parasites, as well as the host cells independently. The compilation of data was used to calculate the antiparasitic activity (EC50) and host cytotoxicity (CC50).
T. cruzi infection was evaluated in C2C12 murine cardiomyoblast cells. 384-microwell plates containing C2C12 murine cardiomyoblast cells were infected with 10^3 and 10^4 cells of T. cruzi (Ca-I/72), to which was added 3-fold serially-dilutions of inhibitor with maximal concentrations of 10 μM, followed by incubation at 37° C. for 2 days. The wells were fixed with 2% PFA in PBS, and stained by 5 μg/ml of DAPI. After >30 min of incubation in a dark environment, the plates were read on an ImageXpress MicroXL microscope (Molecular Devices). The images were analyzed to quantify parasites as well host cells.

The next experiment concerns the target SARS-CoV-2 3CL protease (Severe acute respiratory syndrome coronavirus 2 (2019-nCoV) (SARS-CoV-2), UniProt P0DTD1). The experiment can be described thus: biochemical. In kind it is biochemical. To be noted: read-out: Ki* 3CLpro.
For experiment [3], the system named is T. b. brucei bloodstream forms. The experiment can be described thus: Growth of axenic cultures of T. b. brucei bloodstream forms (BSFs). To be noted: Trypanosoma brucei, read-out: EC50 T. b. brucei BSF, axenic culture.
A further experiment addresses human cathepsin B (Homo sapiens (Human), UniProt P07858). As to the kind of experiment: Human cathepsin B inhibition, Z-FR-AMC assay. In kind it is biochemical. Here is the method: (§1) Recombinant human cathepsins B and L were purchased from Millipore Sigma and used without further treatment. The solid proteins were dissolved into a solution of 50 mM sodium acetate (pH 5.5), 1 mM EDTA, 1 mM CHAPS, 10% (v/v) DMSO, and 5 mM DTT to final concentrations of […] in 20-mL aliquots, and stored at −80° C. until needed. These samples were then diluted into the same buffer to concentrations of −100 nM, and these dilutions were stored at 4° C. and used daily until depletion.
(§2) For assays of cathepsin L and B, inhibitors were evaluated in 0.25-mL reaction mixtures containing a buffer of sodium acetate (pH 5.5), 1 mM CHAPS, 1 mM Na2EDTA, and 5 mM DTT at 25° C. The fluorogenic substrate Cbz-Phe-Arg-7-amino-4-methyl-coumarin (Z-FR-AMC) was dissolved in 100% DMSO, as were all inhibitors, and aliquots of both substrates and inhibitors were added to reaction mixtures to final concentrations of DMSO of 10% (v/v). […] Formation of the fluorescent product AMC was monitored over 30-60-minute time courses for reaction mixtures in 96-well black microplates (Corning Costar®). Rates of peptidolysis of the dipeptide-AMC substrate(s) were measured on either a SpectraMax M5 (Molecular Devices) or a Synergy HTX (Biotek, Wisnooki, VT) microplate reader with λex=360 nm, λem=460 nm in ≥8-sec intervals. Control samples excluded substrate. The measured relative fluorescence units (RFUs) of generated AMC were converted to reaction rates of μM/s by use of a standard curve of known AMC concentrations obtained for both plate readers.

In the next experiment the target is human cathepsin L (Homo sapiens (Human), UniProt P07711). As to the kind of experiment: Human cathepsin L inhibition, Z-FR-AMC assay. In kind it is biochemical. Here is the method:
as §1, §2

Experiment [4] concerns T. b. brucei procyclic forms. As to the kind of experiment: Growth of axenic cultures of T. b. brucei procyclic forms (PCFs). In kind it is cell-based, Trypanosoma brucei brucei. To be noted: Trypanosoma brucei, axenic culture; read-out: EC50 T. b. brucei PCF.
The target of experiment [5] is T1, cruzain. As to the kind of experiment: Kinetic parameters of peptide substrates for cruzain. The class given is biochemical. To be noted: for Km / kcat / kcat/Km: pH 7.5, 25° C., 10% DMSO; for kcat rel: relative to Cbz-Phe-Arg-AMC. As to the method:
All enzyme assays were performed at 25° C. Initial rates of the peptidolytic reaction catalyzed by cruzain were measured by monitoring the fluorescence generated by cleavage of the dipeptide-AMC bond. Assays were conducted in 96-well plates (Greiner; flat-bottom, clear black plates) in a total volume of 250 μL, containing either 50 mM MES (pH 7.5), 50 mM TAPSO, 100 mM DEA, 1 mM CHAPS, 1 mM Na2EDTA, 5 mM DTT, and 10% DMSO (v/v) or 50 mM sodium acetate (pH 5.5), 50 mM MES, 100 mM TEA, 1 mM CHAPS, 1 mM Na2EDTA, 5 mM DTT, and 10% DMSO (v/v). Substrates were dissolved in 100% DMSO and were then diluted 10-fold such that when added to reaction mixtures, final DMSO concentration was 10% (v/v). Reactions were initiated with the addition of 1-10 μL of cruzain (final concentrations: 0.1-3.0 nM (preincubation studies)). Fluorescence was measured on either a SpectraMax M5 (Molecular Devices) or a Synergy HTX (BioTek, Winooski, VT) microplate reader (λex=360 nm, λem=460 nm). Initial rates were determined from continuous kinetic time courses and calculated from the earliest time points, typically at less than 10 min.
Initial velocity data for cruzain-catalyzed reactions of fluorogenic peptide substrates were determined by fitting to eq 1 using GraphPad Prism 6.0 or SigmaPlot 12.0. For eq 1, kcat is the turnover number, [E]t is the concentration of active sites of cruzain, and Ka is the Michaelis constant for the substrate A. Cruzain concentrations were determined by spectrophotometric analysis of purified sample solutions as described.^44

Setting [6] is: Trypanosoma cruzi, C2C12, C2C12 murine cardiomyoblasts.
[7] abbreviates: obtained >10 minutes following initiation of reaction by addition of enzyme, read-out: Ki* Cruzain.

SMILES strings stand for the structures. Where “and” joins values, the source holds several entries; their conditions need not be identical. Equal entries are not always repeated. Where two headings read alike, the source gives them in different places. Non-standard residues stand in square brackets, D forms with d. Residues, ends and D or L forms follow the SMILES beside them. *: point of attachment. Phe(2-OMe) = COc1ccccc1C[C@H](N)C(=O)O; AMC = Cc1cc(=O)oc2cc(N*)ccc12; Cbz = O=C(OCc1ccccc1)* Where only a bound is given, the exact number is not on record here.

T1 sequence (P25779 123-467 limits assumed): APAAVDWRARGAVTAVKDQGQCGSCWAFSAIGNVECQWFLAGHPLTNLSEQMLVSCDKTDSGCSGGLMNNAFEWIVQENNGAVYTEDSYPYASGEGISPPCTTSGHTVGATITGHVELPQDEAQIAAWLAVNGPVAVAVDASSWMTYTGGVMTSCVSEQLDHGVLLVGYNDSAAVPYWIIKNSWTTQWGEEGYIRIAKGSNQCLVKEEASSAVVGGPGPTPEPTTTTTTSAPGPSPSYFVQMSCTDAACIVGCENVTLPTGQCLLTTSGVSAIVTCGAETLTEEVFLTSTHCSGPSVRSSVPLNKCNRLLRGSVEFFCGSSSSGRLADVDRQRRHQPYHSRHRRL
human cathepsin L, sequence (P07711 114-333): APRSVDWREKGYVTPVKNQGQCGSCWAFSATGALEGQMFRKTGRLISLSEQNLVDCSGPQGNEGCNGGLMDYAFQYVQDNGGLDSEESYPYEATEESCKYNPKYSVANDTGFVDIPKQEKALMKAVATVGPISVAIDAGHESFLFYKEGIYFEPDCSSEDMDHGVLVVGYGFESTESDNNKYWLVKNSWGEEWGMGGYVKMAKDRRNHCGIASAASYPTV

With `NCCCC[C@@H](/C=C/c1ccccn1)NC(=O)[C@H](Cc1ccccc1)NC(=O)OCc1ccccc1` [Compound 20, (S,E)-5-((S)-2-(((Benzyloxy)carbonyl)amino)-3-phenylpropanamido)-7-(pyridin-2-yl)hept-6-en-1-aminium Chloride], the Ki on cruzain [1] (apparent initial inhibition constant, 25° C., read-out: Ki) was 17.3 ± 0.3 µM; at cruzain [1] (apparent tight-binding inhibition constant, 25° C., read-out: Ki*), 0.87 µM. For the same compound, the 50% effective concentration (EC50) (usually the concentration needed to bring the measured effect to its halfway point) in experiment [2] (setting [6]) was in the range of 5 to 8 µM.
For `COc1ccccc1C[C@@H](C=O)NC(=O)[C@H](Cc1ccccc1)NC(=O)OCc1ccccc1` [Compound 29] (Cbz-Phe-[Phe(2-OMe)]-aldehyde), the Ki was 0.022 µM at cruzain [1] (setting [7]) and more than 10 µM at SARS-CoV-2 3CL protease.
On to `Cc1ccc2c(c1)C[C@H](NC(=O)[C@H](Cc1ccccc1)NC(=O)OCc1ccccc1)C(O)O2` (stereo partly drawn) [Compound 32, Benzyl ((2S)-1-(((3S)-2-hydroxy-6-methylchroman-3-yl)amino)-1-oxo-3-phenylpropan-2-yl)carbamate], for which the Ki on cruzain [1] (Ki* Cruzain, obtained >10 minutes following initiation of reaction by addition of enzyme) was 0.1 µM; at cruzain [1] (setting [7]), 0.103 ± 0.005 µM; at human cathepsin B (pH 5.5, 25° C., read-out: Ki* hCatB), 6.1 ± 0.9 µM; at SARS-CoV-2 3CL protease (pH 7.5), more than 10 µM; at human cathepsin L (pH 5.5, 25° C., read-out: Ki* hCatL), 0.058 ± 0.002 µM. In addition, the EC50 in experiment [3] is 0.5 µM; in experiment [4], 7 µM; in experiment [2] (C2C12 murine cardiomyoblasts), 3 to 5.7 µM; in experiment [2] (setting [6]) it was 5.7 ± 0.6 µM.
`Cc1cc(=O)oc2cc(NC(=O)[C@H](CCCN=C(N)N)NC(=O)[C@H](Cc3ccccc3)NC(=O)OCc3ccccc3)ccc12` [Compound S1, Cbz-Phe-Arg-AMC] (Cbz-Phe-Arg-{AMC}): at human cathepsin B (pH 5.5), the Km – broadly, the substrate concentration at which the rate is half of its maximum – came out at 150 µM. For the same compound, the Km on human cathepsin L (pH 5.5) turned out to be 2.9 µM. On cruzain [5], the Km came to 0.89 ± 0.09 µM; the kcat (in general, the maximal rate divided by the concentration of active sites) came to 9.6 ± 0.2 s⁻¹; the kcat/Km (commonly the turnover number divided by the Michaelis constant) was 1.1e+07 ± 1e+06 M⁻¹ s⁻¹; the kcat rel is given as 1.00. Also, on cruzain [5] (listed as Cbz-Phe-Arg-AMC), the Km stood at 0.9 µM and the kcat/Km came to 1.1e+07 M⁻¹ s⁻¹.
Turning to `Cc1cc(=O)oc2cc(NC(=O)[C@H](Cc3ccccc3)NC(=O)[C@H](Cc3ccccc3)NC(=O)OCc3ccccc3)ccc12` [Compound S9, Cbz-Phe-Phe-AMC] (Cbz-Phe-Phe-{AMC}), on cruzain [5], the Km amounted to 0.34 µM, the kcat was 0.26 ± 0.01 s⁻¹, the kcat/Km turned out to be 800000 ± 200000 M⁻¹ s⁻¹ and the kcat rel worked out at 0.03.
For the compound `Cc1cc(=O)oc2cc(NC(=O)C(CCc3ccccc3)NC(=O)C(CCCN=C(N)N)NC(=O)OCc3ccccc3)ccc12` (stereo not drawn) [Compound S10, Cbz-Arg-hPhe-AMC], on cruzain [5], the Km is 6.8 µM; the kcat was 4.9 s⁻¹ and 4.9 ± 0.1 s⁻¹; the kcat/Km came to 700000 ± 40000 M⁻¹ s⁻¹; the kcat rel was determined as 0.51.
As to `Cc1cc(=O)oc2cc(NC(=O)[C@H](Cc3ccccc3)NC(=O)[C@H](Cc3ccccc3)NC(=O)N3CCN(C)CC3)ccc12` [Compound S11, NMePip-Phe-Phe-AMC], at cruzain [5], the Km worked out at 14 ± 4 µM, the kcat is 2.8 ± 0.06 s⁻¹, the catalytic efficiency (kcat/Km) came to 200000 ± 40000 M⁻¹ s⁻¹ and the kcat rel was determined as 0.29.
